Source: patent publication US5071957A, “Antibiotic BU-4061T” (Bristol-Myers Company, priority 1990, dated 1991)
Converted amounts (≈) assume the structure as drawn.

Legend:
[1] = system: Moser (human colorectal carcinoma) cells; test: In vitro cytotoxicity against Moser cells; type: cell-based
Protocol: (§1) B16-F10 (murine melanoma) and Moser (human colorectal carcinoma) cells were grown to the logarithmic phase in the enriched Eagle minimum essential medium supplemented with fetal calf serum (FCS, 10%) and kanamycin (60 μg/ml), while HCT-116 (human colon carcinoma) was grown in McCoy's 5A medium supplemented with FCS (10%) penicillin (100 μ/ml) and streptomycin (100 μg/ml). B16-F10, Moser and HCT-116 cells were harvested and implanted into wells of a 96-well microtiter plate with test materials at the inoculum sizes of 3×10^4, 6×10^4 and 6×10^4 cells/ml, respectively. They were incubated at 37° C. in a humidified atmosphere of 5% CO2 and 95% air for 72 hours. The cytotoxicity against tumor cells was determined colorimetrically at 540 nm after staining viable cells.

[2] = system: HCT-116 (human colon carcinoma); test: In vitro cytotoxicity against HCT-116 cells; type: cell-based; details: 72 hours, colorimetric at 540 nm
Protocol: as §1

B16 melanoma = test: Antitumor activity against B16 melanoma (ip)
Protocol: (§2) To determine in vivo antitumor activity of BU-4061T, male BDF1 mice were intraperitoneally inoculated with 0.5 ml of 10% melanotic melanoma B16 brei, and female CDF1 mice were intraperitoneally inoculated with 0.4 ml of diluted ascitic fluid containing 10^6 lymphocytic leukemia P388 cells. […] Test materials were intraperitoneally administered to mice on days 1, 5 and 9 (Q4D×3) or on days 1 to 9 (QlD×9).

[3] = system: protein synthesis in B16-F10 melanoma cells; test: Inhibition of protein synthesis (3H-leucine incorporation) in B16-F10 melanoma cells; type: cell-based, murine
Protocol: (§3) Inhibitory effects of BU-4061T on the macromolecule (DNA, RNA and protein) synthesis were determined in cultured B16-F10 melanoma cells. B16-F10 cells (10^5 cells/ml) were incubated with the compound at 37° C. for 4.5 hours (for DNA synthesis) or 4 hours (for RNA and protein synthesis). Labelled precursor, ^3 H-thymidine, ^14 C-uridine or ^3 H-leucine was added to the culture and further incubated for 30 minutes (for DNA) or 60 minutes (for RNA and protein). After washing with chilled 5% trichloroacetic acid solution, the radioactivity incorporated into the acid-insoluble fraction of the tumor cells was determined by a liquid scintillation counter.

[4] = system: RNA synthesis in B16-F10 melanoma cells; test: Inhibition of RNA synthesis (14C-uridine incorporation) in B16-F10 melanoma cells; type: cell-based, murine
Protocol: as §3

P388 leukemia = test: Antitumor activity against P388 leukemia (ip); details: Q1D × 9
Protocol: as §2

[5] = Solubility (physico-chemical properties); type: physicochemical
From the text: BU-4061T was obtained as a white amorphous powder. […] BU-4061T gave positive response to iodine vapor, ammonium molybdate-sulfuric acid solution and Rydon-Smith reagent, but negative response to ninhydrin and anthrone reagent.

[6] = system: B16-F10 (murine melanoma) cells; test: In vitro cytotoxicity against B16-F10 cells; type: cell-based; details: 72 hours, colorimetric at 540 nm
Protocol: as §1

[7] = system: DNA synthesis in B16-F10 melanoma cells; test: Inhibition of DNA synthesis (3H-thymidine incorporation) in B16-F10 melanoma cells; type: cell-based, murine
Protocol: as §3

## CC[C@H](C)[C@H](NC(=O)[C@H]([C@@H](C)CC)N(C)C(C)=O)C(=O)N[C@H](C(=O)N[C@@H](CC(C)C)C(=O)[C@@]1(C)CO1)[C@@H](C)O [BU-4061T]
[1]; 72 hours, colorimetric at 540 nm
  IC50 Moser: 0.17 µg/mL (≈ 0.306 µM)
[1]; compared with B16-F10 and HCT-116 cells
  cytotoxicity against Moser cells (in words): weaker than that against B16-F10 and HCT-116 cells
[2]
  IC50 HCT-116: 0.0067 µg/mL (≈ 0.0121 µM)
B16 melanoma; 0.063 mg/kg/day ip, Q1D × 9
  MST (median survival time): 15.5 days
  T/C: 119%
B16 melanoma; 0.13 mg/kg/day ip, Q1D × 9
  MST (median survival time): 16.0 days
  T/C: 123%
B16 melanoma; 0.25 mg/kg/day ip, Q1D × 9
  MST (median survival time): 18.0 days
B16 melanoma; 0.25 mg/kg/day ip, Q4D × 3
  MST (median survival time): 14.5 days
  T/C: 112%
B16 melanoma; 0.5 mg/kg/day ip, Q1D × 9
  MST (median survival time): 19.5 days
B16 melanoma; 0.5 mg/kg/day ip, Q4D × 3
  MST (median survival time): 15.5 days
  T/C: 119%
B16 melanoma; 1 mg/kg/day ip, Q1D × 9
  MST (median survival time): 19.0 days
B16 melanoma; 1 mg/kg/day ip, Q4D × 3
  MST (median survival time): 15.5 days
  T/C: 119%
B16 melanoma; 2 mg/kg/day ip, Q4D × 3
  MST (median survival time): 17.0 days
B16 melanoma; 4 mg/kg/day ip, Q4D × 3
  MST (median survival time): 16.5 days
B16 melanoma; ip, either Q4D×3 or Q1D×9 treatment schedule
  antitumor activity against B16 melanoma (in words): significant antitumor activities
[3]; 100 μg/ml, the highest concentration tested
  inhibition of incorporation of leucine into the protein fraction (in words): did not significantly inhibit
[3]; B16-F10 cells, 4 hours + 60 minutes 3H-leucine
  IC50 Protein: > 100 µg/mL
[4]
  inhibitory effect on RNA synthesis (in words): moderate inhibitory effects
[4]; 4 hours + 60 minutes 14C-uridine
  IC50 RNA: 46 µg/mL
P388 leukemia; 0.063 mg/kg/day ip
  MST (median survival time): 10.5 days
  T/C: 105%
P388 leukemia; 0.13 mg/kg/day ip
  MST (median survival time): 11.0 days
  T/C: 110%
P388 leukemia; 0.25 mg/kg/day ip
  MST (median survival time): 11.5 days
  T/C: 115%
P388 leukemia; 0.5 mg/kg/day ip
  MST (median survival time): 13.0 days
P388 leukemia; 1 mg/kg/day ip
  MST (median survival time): 10.5 days
  T/C: 105%
[5]; ethyl acetate
  solubility in ethyl acetate: readily soluble
[5]; methanol
  solubility in methanol: readily soluble
[5]; methylene chloride
  solubility in methylene chloride: readily soluble
[5]; water
  solubility in water: practically insoluble
[6]
  IC50 B16-F10: 0.0047 µg/mL (≈ 0.00847 µM)
[7]
  inhibitory effect on DNA synthesis (in words): moderate inhibitory effects
[7]; 4.5 hours + 30 minutes 3H-thymidine
  IC50 DNA: 16 µg/mL

## CO[C@@]12[C@H](COC(N)=O)C3=C(C(=O)C(C)=C(N)C3=O)N1C[C@@H]1N[C@@H]12 [Mitomycin C, mitomycin C]
B16 melanoma; 0.3 mg/kg/day ip, Q4D × 3
  Body Wt. change on day 5: -0.3 g
  MST (median survival time): 13.0 days
  T/C: 100%
B16 melanoma; 1 mg/kg/day ip, Q4D × 3
  Body Wt. change on day 5: -0.8 g
  MST (median survival time): 18.0 days
B16 melanoma; 3 mg/kg/day ip, Q4D × 3
  Body Wt. change on day 5: -0.3 g
  MST (median survival time): 28.0 days
P388 leukemia; 0.063 mg/kg/day ip
  Body Wt. change on day 4: +0.8 g
  MST (median survival time): 11.0 days
  T/C: 110%
P388 leukemia; 0.13 mg/kg/day ip
  Body Wt. change on day 4: +1.3 g
  MST (median survival time): 12.0 days
  T/C: 120%
P388 leukemia; 0.25 mg/kg/day ip
  Body Wt. change on day 4: +1.0 g
  MST (median survival time): 13.0 days
P388 leukemia; 0.5 mg/kg/day ip
  Body Wt. change on day 4: 0.0 g
  MST (median survival time): 15.5 days
P388 leukemia; 1 mg/kg/day ip
  Body Wt. change on day 4: -0.8 g
  MST (median survival time): 17.0 days
